Reference: patent publication US9161927B2, “Drug combinations containing PDE4 inhibitors and NSAIDs” (Boehringer Ingelheim International GmbH, priority 2009, dated 2015)
Read-outs that look alike come from different tables or passages of the source. One block for each compound: values may come before it.

Assays:
male Wistar rats [1] = assay: Experiment 3: roflumilast-mediated weight loss, leukocytosis and neutrophilia in rats, with or without SC-560 or lumiracoxib; assay type: in vivo, rat; settings: for leukocytosis (white blood cells, FIG. 2B on the left) / neutrophilia (neutrophils in % of white blood cells, FIG. 2B on the right): 95 hours after t0; for leukocytosis (white blood cells, FIG. 2B on the left) / neutrophilia (neutrophils in % of white blood cells, FIG. 2B on the right) / weight loss (body weight as percentage change from t0, FIG. 2A): p.o. for four days, roflumilast 10 mg/kg at 1300, SC-560 or lumiracoxib 2 mg/kg at 0800 and 1700, compared with control group
Protocol: (§1) Six male Wistar rats in each group were treated for four days with the following substances (all substances are given p.o.=orally):
(§2) Group 1 (“control group”): Six male Wistar rats were given a daily dose of 0.5% Natrosol (placebo) at the times 0800, 1300 and 1700 hours.
(§3) Group 2 (“roflumilast group”): Six male Wistar rats were given a daily dose of 0.5% Natrosol (placebo) at 0800 and 1700 hours and 10 mg/kg roflumilast (PDE4 inhibitor) at 1300 hours.
(§4) Group 6 (“lumiracoxib group”): Six male Wistar rats were given a daily dose of 2 mg/kg lumiracoxib (NSAID, selective for COX-2) at the times 0800 and 1700 hours and 0.5% Natrosol at 1300 hours.
The average±standard deviation of the body weights at time t0 was 306±11 g.
At the end of the experiment (95 hours after t0 (=the time of the first administration on day 1, 0800 hours)) the proportion of white blood cells (×1000 cells/μl blood, FIG. 2B, left-hand Figure) and the proportion of neutrophils (in % of white blood cells, FIG. 2B, right-hand Figure) were determined from the blood of 5 of the rats from the individual groups.

male Wistar rats [2] = assay: Experiment 4: roflumilast-mediated diarrhoea and mesentery histopathology in rats, with or without SC-560 or lumiracoxib; assay type: in vivo, rat; settings: affected animals out of animals examined; p.o. for four days, 95 hours after t0; roflumilast 10 mg/kg at 1300, SC-560 or lumiracoxib 2 mg/kg at 0800 and 1700
Protocol: as §1, §2, §3, §4
(§5) At the end of the experiment (95 hours after t0 (=the time of the first administration on day 1, 0800 hours)) the rats from the individual groups were examined phenotypically and histopathologically for the presence of multifocal perivascular mononuclear infiltration (=inflammation parameter) in the mesentery and for the proliferation of fibroblasts in the mesentery. In addition, the occurrence of diarrhoea in the rats from the different groups was noted.

male Wistar rats [3] = assay: Experiment 1: roflumilast-mediated weight loss, leukocytosis and neutrophilia in rats, with or without diclofenac
Protocol: as §1, §2, §3
(§6) Group 3 (“roflumilast+diclofenac group”): Six male Wistar rats were given a daily dose of 1 mg/kg diclofenac (NSAID) at the times 0800 and 1700 hours and 10 mg/kg roflumilast (PDE4 inhibitor) at 1300 hours.
(§7) Group 4 (“diclofenac group”): Six male Wistar rats were given a daily dose of 1 mg/kg diclofenac (NSAID) at the times 0800 and 1700 hours and 0.5% Natrosol (placebo) at 1300 hours.
(§8) For pharmacokinetic analysis (determining the plasma levels of the substances) on day 4 one rat from each group was used; these rats were no longer available for other parameters under investigation.
The average±standard deviation of the body weights at time t0 was 355±17 g.
At the end of the experiment (95 hours after t0 (=the time of the first administration on day 1, 0800)) the proportion of white blood cells (×1000 cells/μl blood, FIG. 1B, left-hand Figure) and the proportion of neutrophils (in % of white blood cells, FIG. 1B, right-hand Figure) were determined from the blood of 4 or 5 of the rats from the individual groups.

male Wistar rats [4] = assay type: in vivo; settings: affected animals out of animals examined; p.o. for four days, 95 hours after t0; roflumilast 10 mg/kg at 1300, diclofenac 1 mg/kg at 0800 and 1700
Protocol: as §1, §2, §3, §6, §7, §8, §5

[5] = NSAID 2 mg/kg at 0800 and 1700 co-administered with roflumilast 10 mg/kg at 1300, p.o. for four days
[6] = 95 hours after t0, p.o. for four days, roflumilast 10 mg/kg at 1300, diclofenac 1 mg/kg at 0800 and 1700, compared with control group

SMILES: COc1ccc(-n2nc(C(F)(F)F)cc2-c2ccc(Cl)cc2)cc1 [SC-560]
leukocytosis (white blood cells, FIG. 2B on the left) (male Wistar rats [1]): very similar to the control groups
neutrophilia (neutrophils in % of white blood cells, FIG. 2B on the right) (male Wistar rats [1]): very similar to the control groups
protective effect on roflumilast-mediated leukocytosis (male Wistar rats [1]; [5]): absolutely no protective effect
protective effect on roflumilast-mediated neutrophilia (male Wistar rats [1]; [5]): absolutely no protective effect
protective effect on roflumilast-mediated weight loss (male Wistar rats [1]; [5]): absolutely no protective effect
weight loss (body weight as percentage change from t0, FIG. 2A) (male Wistar rats [1]): very similar to the control groups
Diarrhoea (male Wistar rats [2]): 0/6

SMILES: O=C(O)Cc1ccccc1Nc1c(Cl)cccc1Cl [diclofenac]
leukocytosis (white blood cells, FIG. 1B on the left) (male Wistar rats [3]; [6]): very similar to the control groups
neutrophilia (neutrophils in % of white blood cells, FIG. 1B on the right) (male Wistar rats [3]; [6]): very similar to the control groups
weight loss (body weight as percentage change from t0, FIG. 1A) (male Wistar rats [3]; p.o. for four days, roflumilast 10 mg/kg at 1300, diclofenac 1 mg/kg at 0800 and 1700, compared with control group): very similar to the control groups
Diarrhoea (male Wistar rats [4]): 0/6
Mesentery: Proliferation of fibroblasts (male Wistar rats [4]): 0/5
Mesentery: multifocal perivascular mononuclear infiltration (=inflammation parameter) (male Wistar rats [4]): 0/5

leukocytosis (white blood cells, FIG. 2B on the left) (male Wistar rats [1]): very similar to the control groups
neutrophilia (neutrophils in % of white blood cells, FIG. 2B on the right) (male Wistar rats [1]): very similar to the control groups
Diarrhoea (male Wistar rats [2]): 0/6
Mesentery: multifocal perivascular mononuclear infiltration (=inflammation parameter) (male Wistar rats [2]): 0/5
SMILES: Cc1ccc(Nc2c(F)cccc2Cl)c(CC(=O)O)c1 [lumiracoxib]
weight loss (body weight as percentage change from t0, FIG. 2A) (male Wistar rats [1]): very similar to the control groups
Mesentery: Proliferation of fibroblasts (male Wistar rats [2]): 0/5

SMILES: O=C(Nc1c(Cl)cncc1Cl)c1ccc(OC(F)F)c(OCC2CC2)c1 [roflumilast]
rats which died between day 4 and day 5 of the experiment (male Wistar rats [3]; group of six rats, roflumilast 10 mg/kg p.o. daily): one rat
Diarrhoea (male Wistar rats [4]): 5/6
Mesentery: Proliferation of fibroblasts (male Wistar rats [4]): 4/4
Mesentery: multifocal perivascular mononuclear infiltration (=inflammation parameter) (male Wistar rats [4]): 4/4
leukocytosis (white blood cells, FIG. 2B on the left) (male Wistar rats [1]): observed
neutrophilia (neutrophils in % of white blood cells, FIG. 2B on the right) (male Wistar rats [1]): observed
weight loss (body weight as percentage change from t0, FIG. 2A) (male Wistar rats [1]): observed
Diarrhoea (male Wistar rats [2]): 2/6
Mesentery: Proliferation of fibroblasts (male Wistar rats [2]): 5/5
Mesentery: multifocal perivascular mononuclear infiltration (=inflammation parameter) (male Wistar rats [2]): 5/5
